Consider 18 compounds from DBAASP.

Each structure is given as a SMILES string. In brackets after ≈: the same amount, converted by molar mass. Several values for one entry are separate records, joined by “and”; a condition that tells them apart may be missing. Equal values may be shown once. Some results are limits rather than exact numbers.

Experiment in all cases: ≥ marks a high value that may be exact or a test limit, other limits are often not marked, values filed in µg/mL are converted to µM
For assay [1], the system named is Escherichia coli ATCC 25922.
Assay [2] relates to Staphylococcus aureus ATCC 29213.
Assay [3] relates to Pseudomonas aeruginosa ATCC 27853.
The subject of assay [4] is Staphylococcus aureus ATCC 25923.

For the compound `CC[C@H](C)[C@H](NC(=O)[C@H](CCCN=C(N)N)NC(=O)[C@H](CCC(N)=O)NC(=O)[C@@H](NC(=O)[C@@H](NC(=O)[C@H](CCCN=C(N)N)NC(=O)[C@H](CCCCN)NC(=O)[C@H](C)N)[C@@H](C)CC)C(C)C)C(=O)N[C@@H](CCCCN)C(=O)N[C@@H](CC(=O)O)C(=O)N[C@@H](Cc1ccccc1)C(=O)N[C@@H](CC(C)C)C(=O)N[C@@H](CCCN=C(N)N)C(=O)O` [AKRIVQRIKDFLR], the results for the MIC in assay [1] and in assay [2] were 10 µM (≈ 16.4 µg/mL) and greater than 40 µM, respectively.

Turning to `C[C@H](NC(=O)[C@H](Cc1ccccc1)NC(=O)[C@H](C)NC(=O)[C@H](Cc1ccccc1)NC(=O)[C@H](CCCCN)NC(=O)[C@H](C)NC(=O)[C@H](Cc1ccccc1)NC(=O)[C@H](CCCCN)NC(=O)[C@H](CCCCN)NC(=O)[C@H](C)NC(=O)[C@H](Cc1ccccc1)NC(=O)[C@H](CCCCN)NC(=O)[C@H](CCCCN)NC(=O)[C@H](Cc1ccccc1)NC(=O)[C@H](CCCCN)NC(=O)[C@H](CCCCN)NC(=O)[C@H](C)NC(=O)[C@H](Cc1ccccc1)NC(=O)[C@H](CCCCN)NC(=O)[C@H](CCCCN)NC(=O)[C@H](C)NC(=O)[C@@H](N)Cc1ccccc1)C(=O)N[C@@H](Cc1ccccc1)C(N)=O` [FAKKFAKKFKKFAKKFAKFAFAF], the minimum inhibitory concentration (MIC) in assay [1], in assay [3] and in assay [4] was 1.44 µM (≈ 4 µg/mL) each time. For `CC[C@H](C)[C@H](NC(=O)[C@H](CCCN=C(N)N)NC(=O)[C@H](CCC(N)=O)NC(=O)[C@@H](NC(=O)[C@@H](NC(=O)[C@H](CCCN=C(N)N)NC(=O)[C@H](CCCCN)NC(=O)[C@@H](N)Cc1ccccc1)[C@@H](C)CC)C(C)C)C(=O)N[C@@H](CCCCN)C(=O)N[C@@H](CC(=O)O)C(=O)N[C@@H](CCC(N)=O)C(=O)N[C@@H](CC(C)C)C(=O)N[C@@H](CCCN=C(N)N)C(=O)O` [FKRIVQRIKDQLR], the MIC in assay [1] is 10 µM (≈ 17 µg/mL); in assay [2], greater than 40 µM.

As to `CC[C@H](C)[C@H](NC(=O)[C@H](CCCCN)NC(=O)[C@H](CCCCN)NC(=O)[C@@H](NC(=O)[C@@H](NC(=O)[C@H](CCCCN)NC(=O)[C@H](Cc1ccccc1)NC(=O)[C@H](CC(C)C)NC(=O)CN)[C@@H](C)CC)[C@@H](C)CC)C(=O)N[C@@H](C)C(=O)N[C@@H](CCCCN)C(=O)N[C@@H](CO)C(=O)N[C@@H](Cc1ccccc1)C(N)=O` [GLFKIIKKIAKSF], in assay [1], the MIC is 16.7 µM and 33.5 µM. For the compound `CC[C@H](C)[C@H](NC(=O)CNC(=O)[C@H](C)NC(=O)[C@@H](NC(=O)[C@H](CC(N)=O)NC(=O)[C@H](CCCCN)NC(=O)[C@H](C)NC(=O)[C@H](C)NC(=O)CNC(=O)[C@H](CCCCN)NC(=O)[C@@H](NC(=O)[C@@H](NC(=O)[C@H](CC(=O)O)NC(=O)[C@H](CC(C)C)NC(=O)[C@H](CC(C)C)NC(=O)[C@H](CC(C)C)NC(=O)CN)[C@@H](C)O)C(C)C)C(C)C)C(=O)N[C@@H](CC(C)C)C(=O)N[C@@H](CC(C)C)C(=O)N[C@@H](CC(N)=O)C(=O)N[C@@H](CCCCN)C(=O)N[C@@H](CC(C)C)C(=O)N[C@@H](CCCCN)C(=O)N[C@H]1CSSC[C@@H](C(=O)O)NC(=O)[C@H](CC(=O)O)NC(=O)CNC(=O)[C@H]([C@@H](C)O)NC(=O)[C@H](CCSC)NC(=O)[C@H](CCCCN)NC1=O` [GLLLDTVKGAAKNVAGILLNKLKCKMTGDC], the minimal inhibitory concentration (MIC) in assay [1] worked out at 4.05 µM (≈ 12.5 µg/mL).

`CC[C@H](C)[C@H](NC(=O)[C@@H](NC(=O)[C@H](CC(=O)O)NC(=O)[C@H](CC(C)C)NC(=O)[C@H](CC(C)C)NC(=O)[C@H](CCC(N)=O)NC(=O)CNC(=O)[C@H](C)NC(=O)[C@H](CC(C)C)NC(=O)[C@H](CC(N)=O)NC(=O)[C@H](CCCCN)NC(=O)[C@H](C)NC(=O)[C@H](C)NC(=O)[C@H](CC(N)=O)NC(=O)[C@H](CCCCN)NC(=O)[C@@H](NC(=O)[C@@H](NC(=O)[C@H](CC(=O)O)NC(=O)[C@H](CCSC)NC(=O)[C@H](CC(C)C)NC(=O)CN)[C@@H](C)O)C(C)C)[C@@H](C)O)C(=O)N[C@@H](CCCCN)C(=O)N[C@H]1CSSC[C@@H](C(=O)O)NC(=O)CNC(=O)[C@H]([C@@H](C)O)NC(=O)[C@H](CCSC)NC(=O)[C@H](CCCCN)NC1=O` [GLMDTVKNAAKNLAGQLLDTIKCKMTGC]: in assay [1], the minimum inhibitory concentration (MIC) stood at 30 µM (≈ 88.1 µg/mL).

As for `CC[C@H](C)[C@H](NC(=O)[C@H](CCCCN)NC(=O)[C@H](CO)NC(=O)[C@H](C)NC(=O)[C@H](Cc1c[nH]c2ccccc12)NC(=O)CN)C(=O)NCC(=O)N[C@H](C(=O)N[C@@H](CCC(N)=O)C(=O)N[C@@H](CC(C)C)C(=O)NCC(=O)N[C@@H](CCCCN)C(=O)N[C@@H](CCSC)C(=O)N[C@@H](C)C(=O)N[C@@H](CCCCN)C(=O)N[C@H](C(=O)NCC(=O)N[C@@H](CC(C)C)C(=O)N[C@@H](CCCCN)C(=O)N[C@@H](CCC(=O)O)C(=O)N[C@@H](Cc1ccccc1)C(=O)N[C@H](C(=O)N[C@@H](CCC(N)=O)C(=O)N[C@@H](CO)C(=O)O)C(C)C)C(C)C)[C@@H](C)O` [GWASKIGTQLGKMAKVGLKEFVQS], the minimum inhibitory concentration (MIC) in assay [1] was 100 µM (≈ 256 µg/mL); in assay [4] it was 25 µM (≈ 64.1 µg/mL). Consider `CC[C@H](C)[C@H](NC(=O)[C@H](CCCCN)NC(=O)[C@H](C)NC(=O)[C@H](CCSC)NC(=O)[C@@H](NC(=O)[C@H](CCCCN)NC(=O)[C@H](CC(C)C)NC(=O)[C@H](Cc1ccccc1)NC(=O)[C@@H](NC(=O)[C@H](CC(=O)O)NC(=O)CNC(=O)[C@H](Cc1c[nH]c2ccccc12)NC(=O)CN)[C@@H](C)O)[C@@H](C)O)C(=O)N[C@@H](C)C(=O)N[C@@H](CCCCN)C(=O)N[C@H](C(=O)NCC(=O)N1CCC[C@H]1C(=O)N[C@@H](CCCCN)C(=O)N[C@@H](CC(C)C)C(=O)N[C@@H](CC(C)C)C(=O)N[C@@H](Cc1cnc[nH]1)C(=O)N[C@@H](CO)C(=O)O)C(C)C` [GWGDTFLKTMAKIAKVGPKLLHS], for which, in assay [4], the MIC is > 64 µM and 32 µM. Take `CSCC[C@H](NC(=O)[C@@H](N)CCCCN)C(=O)N[C@@H](CCCCN)C(=O)N[C@@H](CCCCN)C(=O)N[C@@H](C)C(=O)N[C@@H](CC(C)C)C(=O)N[C@@H](CCC(N)=O)C(=O)N[C@@H](Cc1ccc(O)cc1)C(N)=O` [KMKKALQY]: the MIC in assay [1] and in assay [3] was greater than 100 µM each time. As to `CC(C)C[C@H](NC(=O)[C@H](CO)NC(=O)[C@@H](N)CCCCN)C(=O)N[C@H](C(=O)N[C@@H](CCCN=C(N)N)C(=O)N[C@@H](CCCN=C(N)N)C(=O)N[C@@H](Cc1c[nH]c2ccccc12)C(=O)N[C@@H](CCCN=C(N)N)C(=O)N[C@@H](CO)C(=O)N[C@@H](CCCN=C(N)N)C(=O)N[C@@H](Cc1c[nH]c2ccccc12)C(N)=O)C(C)C` [KSLVRRWRSRW], the MIC in assay [1] was found to be 30 µM (≈ 45.9 µg/mL); in assay [3], 40 µM (≈ 61.2 µg/mL); in assay [4], 30 µM (≈ 45.9 µg/mL). Regarding `CC(C)C[C@H](NC(=O)[C@H](CCCCN)NC(=O)[C@H](CC(C)C)NC(=O)[C@H](CC(C)C)NC(=O)[C@H](CCCCN)NC(=O)[C@H](CCCCN)NC(=O)[C@H](C)NC(=O)[C@H](CC(C)C)NC(=O)[C@H](CCCCN)NC(=O)[C@H](CC(C)C)NC(=O)[C@H](CC(C)C)NC(=O)[C@H](CCCCN)NC(=O)[C@H](CCCCN)NC(=O)[C@@H](N)CC(C)C)C(=O)N[C@@H](C)C(=O)NCC(=O)O` [LKKLLKLAKKLLKLAG], the MIC in assay [1] and in assay [2] was 5 µM (≈ 8.89 µg/mL) each time. Consider `CC(C)C[C@H](NC(=O)[C@H](Cc1ccccc1)NC(=O)[C@H](C)NC(=O)CNC(=O)[C@H](Cc1c[nH]c2ccccc12)NC(=O)[C@H](CC(N)=O)NC(=O)[C@@H](N)CC(C)C)C(=O)N[C@@H](CCCCN)C(=O)N[C@@H](Cc1cnc[nH]1)C(=O)N[C@@H](Cc1ccccc1)C(=O)N[C@@H](Cc1ccccc1)C(=O)N[C@@H](CCCCN)C(=O)O` [LNWGAFLKHFFK], for which, in assay [3], the minimum inhibitory concentration (MIC) was found to be 32 µM (≈ 48.2 µg/mL). On to `CC[C@H](C)[C@H](NC(=O)[C@H](C)NC(=O)CNC(=O)[C@H](Cc1c[nH]c2ccccc12)NC(=O)[C@H](CC(N)=O)NC(=O)[C@@H](N)CC(C)C)C(=O)N[C@@H](CCCCN)C(=O)N[C@@H](CCCCN)C(=O)N[C@@H](Cc1cnc[nH]1)C(=O)N[C@H](C(=O)N[C@H](C(=O)N[C@@H](CCCCN)C(=O)O)[C@@H](C)CC)[C@@H](C)CC` [LNWGAIKKHIIK], for which, in assay [3], the MIC amounted to 16 µM (≈ 22.7 µg/mL).

Regarding `CC[C@H](C)[C@H](NC(=O)[C@H](Cc1ccc(O)cc1)NC(=O)[C@H](CCC(N)=O)NC(=O)[C@H](CC(C)C)NC(=O)[C@H](C)NC(=O)[C@H](CCCCN)NC(=O)[C@H](CCCCN)NC(=O)[C@@H](N)CCSC)C(=O)N[C@@H](CCCCN)C(=O)N[C@@H](CC(C)C)C(=O)N[C@@H](CC(C)C)C(=O)N[C@@H](CCCCN)C(=O)N[C@@H](CCC(=O)O)C(N)=O` [MKKALQYIKLLKE], the minimum inhibitory concentration (MIC) in assay [1] and in assay [3] was greater than 100 µM each time.

The compound `CSCC[C@H](NC(=O)[C@H](CCCN=C(N)N)NC(=O)[C@H](Cc1c[nH]c2ccccc12)NC(=O)[C@H](CCC(N)=O)NC(=O)[C@H](Cc1c[nH]c2ccccc12)NC(=O)[C@H](CCCN=C(N)N)NC(=O)[C@@H](N)CCCN=C(N)N)C(=O)N[C@@H](CCCCN)C(=O)N[C@@H](CCCCN)C(=O)O` [RRWQWRMKK] gave an MIC in assay [1] of 186 µM (≈ 256 µg/mL). As for `NC(=O)[C@H](CCCN=C(N)N)NC(=O)[C@H](Cc1c[nH]c2ccccc12)NC(=O)[C@H](CCCN=C(N)N)NC(=O)[C@H](Cc1c[nH]c2ccccc12)NC(=O)[C@@H](N)CCCN=C(N)N` [RWRWR], the minimum inhibitory concentration (MIC) worked out at 233 µM (≈ 200 µg/mL) in assay [1], 58.2 µM (≈ 49.9 µg/mL) in assay [3] and 58.2 µM (≈ 49.9 µg/mL) in assay [4]. As for `CC(C)C[C@H](NC(=O)[C@H](Cc1ccccc1)NC(=O)[C@@H]1CCCN1C(=O)[C@H](Cc1c[nH]c2ccccc12)NC(=O)[C@H](Cc1c[nH]c2ccccc12)NC(=O)[C@H](Cc1c[nH]c2ccccc12)NC(=O)[C@H](C)NC(=O)[C@H](Cc1ccccc1)NC(=O)[C@H](CCCCN)NC(=O)[C@H](CCCCN)NC(=O)[C@@H](N)C(C)C)C(=O)N[C@@H](CCCCN)C(=O)N[C@@H](CCCCN)C(N)=O` [VKKFAWWWPFLKK], the MIC in assay [1] was determined as 32 µM (≈ 56.4 µg/mL). Compound `CC(C)C[C@H](NC(=O)[C@H](Cc1ccccc1)NC(=O)[C@@H]1CCCN1C(=O)[C@H](C)NC(=O)[C@H](Cc1c[nH]c2ccccc12)NC(=O)[C@H](Cc1c[nH]c2ccccc12)NC(=O)[C@@H]1CCCN1C(=O)[C@H](Cc1ccccc1)NC(=O)[C@H](CCCN=C(N)N)NC(=O)[C@H](CCCN=C(N)N)NC(=O)[C@@H](N)C(C)C)C(=O)N[C@@H](CCCN=C(N)N)C(=O)N[C@@H](CCCN=C(N)N)C(N)=O` [VRRFPWWAPFLRR] gave a minimum inhibitory concentration (MIC) in assay [1] of 8 µM (≈ 14.3 µg/mL).
